{
  "source": "paper PMC11058299",
  "about": "“Synthesis, molecular docking evaluation for LOX and COX-2 inhibition and determination of in-vivo analgesic potentials of aurone derivatives” (Heliyon, 2024)",
  "key": {"LOX enzyme": {"target": "T1, LOX enzyme (Glycine max, UniProt P08170)", "T1 construct": "purchased Cayman Chemicals", "T1 sequence (P08170 1-839)": "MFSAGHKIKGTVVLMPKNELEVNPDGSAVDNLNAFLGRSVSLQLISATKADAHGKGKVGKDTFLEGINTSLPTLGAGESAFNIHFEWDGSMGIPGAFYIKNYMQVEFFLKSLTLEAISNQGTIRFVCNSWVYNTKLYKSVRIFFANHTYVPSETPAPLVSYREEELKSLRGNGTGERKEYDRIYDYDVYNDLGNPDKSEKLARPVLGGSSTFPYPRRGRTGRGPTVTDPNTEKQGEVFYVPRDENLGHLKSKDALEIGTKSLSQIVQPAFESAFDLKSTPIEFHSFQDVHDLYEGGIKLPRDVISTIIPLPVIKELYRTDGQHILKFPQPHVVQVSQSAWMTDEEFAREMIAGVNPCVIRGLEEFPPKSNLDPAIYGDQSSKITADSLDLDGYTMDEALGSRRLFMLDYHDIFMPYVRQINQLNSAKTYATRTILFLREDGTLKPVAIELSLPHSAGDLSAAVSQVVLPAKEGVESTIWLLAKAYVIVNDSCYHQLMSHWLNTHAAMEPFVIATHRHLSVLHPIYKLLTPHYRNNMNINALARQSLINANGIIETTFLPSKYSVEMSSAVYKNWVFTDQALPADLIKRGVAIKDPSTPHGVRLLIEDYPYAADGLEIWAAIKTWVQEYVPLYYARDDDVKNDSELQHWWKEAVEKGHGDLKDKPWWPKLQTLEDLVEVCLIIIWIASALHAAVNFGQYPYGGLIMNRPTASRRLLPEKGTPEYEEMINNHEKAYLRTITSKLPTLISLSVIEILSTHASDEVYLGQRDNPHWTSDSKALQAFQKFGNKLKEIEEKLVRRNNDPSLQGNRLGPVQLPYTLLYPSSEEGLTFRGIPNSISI", "assay": "LOX enzyme kinetic assay (Lineweaver-Burk)", "type": "biochemical", "settings": "Lineweaver-Burk plot", "description": "The type of enzyme inhibition by compound (WE-4) was determined using the continuous spectrophotometric rate determination method. Various concentrations of the substrate (AA) were prepared in a Tween-20 solution within a 200 mM borate buffer at pH 9.0. A fixed concentration of LOX enzyme (10,000 units/ml) was prepared in a separate 200 mM borate buffer at pH 9.0. The enzyme kinetics were analyzed by employing the Lineweaver and Burk method while examining the substrate at different concentrations in the presence or absence of compound (WE-4)."}, "[1]": {"tested_on": "heat induced tail flicking latency", "assay": "Tail immersion test", "type": "in vivo", "settings": "mice; for tail flicking latency: after 90 min, without Naloxone", "description": "Group I: Control, Group II-XV: WE-1 to WE-7 (sample compounds) at dose of 10 mg/kg and 20 mg/kg and Group XVI: Standard. The control (Group I) was given normal saline. Group II-XV received 10 mg/kg and 20 mg/kg of test sample (WE-1 to WE-7).\nThe cut-off time was set at 25 s, and the time taken for the mice to flick their tails out of the water was recorded at 30, 60, 90, and 120-min intervals. An increase in the time of tail immersion was compared to the control group to determine the analgesic effect of the tested drugs. The percentage of inhibition was calculated at the time interval showing the highest effect."}},
  "note": "Entries after “also recorded” stand apart in the source; their conditions may differ.",
  "data": [
    {"smiles": "COc1ccc(C=C2Oc3ccccc3C2=O)cc1OC", "note": "[WE-4, 2-(3,4-dimethoxybenzylidene)benzofuran-3(2H)-one]", "values": [
      {"measurement": "type of enzyme inhibition", "setting": "LOX enzyme", "value": "non-competitive inhibitor; also recorded: non-competitive inhibition"},
      {"measurement": "tail flicking latency", "setting": "[1]; 10 mg/kg", "value": "11.23 ± 0.93"},
      {"measurement": "percentage inhibition of pain, tail immersion", "setting": "[1]; 20 mg/kg oral, at interval of highest effect", "value": 74.31, "unit": "%"},
      {"measurement": "tail flicking latency", "setting": "[1]; 20 mg/kg", "value": "13.41 ± 1.21"}
    ]}
  ]
}
